Experimental data taken from ChEMBL document CHEMBL1128839, “Aminodiol HIV protease inhibitors. 2. 1,1-Dimethyl-2-hydroxyethyl carbamate derivatives with enhanced potency” (Bioorg Med Chem Lett, 1995).
pEC50, pIC50: −log10 of the molar value.

Experiments:
[1] = system: CCRF-CEM; assay: Compound was evaluated for its ability to inhibit the replication of HIV-1 virus by 50% in cell culture using XTT endpoint; assay type: functional; conditions: Homo sapiens, read-out: ED50 (the source's name)
[2] = molecular target: Human immunodeficiency virus type 1 protease (Human immunodeficiency virus 1, UniProt Q72874); assay: Inhibition of HIV protease cleavage of V-S-Q-N-(b-naphthylalanine)-P-I-V
[3] = system: CCRF-CEM; assay: Cytotoxicity against CEM cells; assay type: functional, Homo sapiens
[4] = Half-life period by analytical HPLC at pH 7.2; assay type: ADME
[5] = system: CCRF-CEM; assay: Compound was evaluated for its ability to inhibit the replication of HIV-2 virus (strain CBL-20) by 50% in cell culture using XTT endpoint; assay type: functional; conditions: Homo sapiens, read-out: ED50 (the source's name)

Compound | pEC50 [1] | pIC50 [2] | Cytotoxicity [3] | half-life [4] [min] | pEC50 [5]
C[C@@H](O)C(C)(C)OC(=O)N[C@@H](Cc1ccccc1)[C@H](O)CNC[C@@H](O)[C@H](Cc1ccccc1)NC(=O)OC(C)(C)C | 6.49 | 6.80 | >10 µM |  | 
CC(C)(C)OC(=O)N[C@@H](Cc1ccccc1)[C@H](O)CNC[C@@H](O)[C@@H](N)Cc1ccccc1 |  | < 5.00 |  |  | 
CC(C)(C)OC(=O)N[C@@H](Cc1ccccc1)[C@H](O)CNC[C@@H](O)[C@H](Cc1ccccc1)NC(=O)OC(C)(C)CN |  | < 5.00 |  |  | 
CC(C)(C)OC(=O)N[C@@H](Cc1ccccc1)[C@H](O)CNC[C@@H](O)[C@H](Cc1ccccc1)NC(=O)OC(C)(CO)CO |  | 6.70 | >10 µM | 1080 | 
CC(C)(C)OC(=O)N[C@@H](Cc1ccccc1)[C@H](O)CNC[C@@H](O)[C@H](Cc1ccccc1)NC(=O)OCCO | 6.55 | 6.64 | >10 µM |  | 
CC(C)(C)OC(=O)N[C@@H](Cc1ccccc1)[C@H](O)CNC[C@@H](O)[C@H](Cc1ccccc1)NC(=O)OC(C)(C)CO | 7.42 | 7.46 | >=10000 nM |  | 6.99
C[C@H](O)C(C)(C)OC(=O)N[C@@H](Cc1ccccc1)[C@H](O)CNC[C@@H](O)[C@H](Cc1ccccc1)NC(=O)OC(C)(C)C | 7.46 | 6.98 | >10 µM |  | 
COCC(C)(C)OC(=O)N[C@@H](Cc1ccccc1)[C@H](O)CNC[C@@H](O)[C@H](Cc1ccccc1)NC(=O)OC(C)(C)C | 5.99 | 6.38 | >=10000 nM |  | 
CC(C)(C)OC(=O)N[C@@H](Cc1ccccc1)[C@H](O)CNC[C@@H](O)[C@H](Cc1ccccc1)NC(=O)OC(C)(C)CNC=O | 6.21 | 5.82 | >=10000 nM |  | 
CC(C)(C)OC(=O)N[C@@H](Cc1ccccc1)[C@H](O)CNC[C@@H](O)[C@H](Cc1ccccc1)NC(=O)OC(C)(C)CCCO | 6.19 | 5.96 | >=10000 nM |  | 
CC(C)(C)OC(=O)N[C@@H](Cc1ccccc1)[C@H](O)CNC[C@@H](O)[C@H](Cc1ccccc1)NC(=O)OC(C)(C)CCO | 6.76 | 6.70 | >=10000 nM |  | 
CC(C)(CO)OC(=O)N[C@@H](Cc1ccccc1)[C@H](O)CNC[C@@H](O)[C@H](Cc1ccccc1)NC(=O)OC(C)(C)CO | 6.07 | 7.80 | >10 µM |  | 
CC(C)(C)OC(=O)N[C@@H](Cc1ccccc1)[C@H](O)CNC[C@@H](O)[C@H](Cc1ccccc1)NC(=O)OC1(CO)CCC1 | 6.81 | 7.00 | >10 µM |  | 
CC(C)(C)OC(=O)N[C@@H](Cc1ccccc1)[C@H](O)CNC[C@@H](O)[C@H](Cc1ccccc1)NC(=O)OC(C)(C)C | 7.10 |  | >=10000 nM |  | 
